ChEMBL document CHEMBL2074220, “Interaction of human organic anion transporters with various cephalosporin antibiotics” (Eur J Pharmacol, 2002)

Key:
[1] = molecular target: T1, Organic anion transporter 3 (Homo sapiens, UniProt Q8TCC7); assay: TP_TRANSPORTER: inhibition of Estrone sulfate uptake in OAT3-expressing S2 cells; format: functional, cell-based
T1 sequence (Q8TCC7 whole entry): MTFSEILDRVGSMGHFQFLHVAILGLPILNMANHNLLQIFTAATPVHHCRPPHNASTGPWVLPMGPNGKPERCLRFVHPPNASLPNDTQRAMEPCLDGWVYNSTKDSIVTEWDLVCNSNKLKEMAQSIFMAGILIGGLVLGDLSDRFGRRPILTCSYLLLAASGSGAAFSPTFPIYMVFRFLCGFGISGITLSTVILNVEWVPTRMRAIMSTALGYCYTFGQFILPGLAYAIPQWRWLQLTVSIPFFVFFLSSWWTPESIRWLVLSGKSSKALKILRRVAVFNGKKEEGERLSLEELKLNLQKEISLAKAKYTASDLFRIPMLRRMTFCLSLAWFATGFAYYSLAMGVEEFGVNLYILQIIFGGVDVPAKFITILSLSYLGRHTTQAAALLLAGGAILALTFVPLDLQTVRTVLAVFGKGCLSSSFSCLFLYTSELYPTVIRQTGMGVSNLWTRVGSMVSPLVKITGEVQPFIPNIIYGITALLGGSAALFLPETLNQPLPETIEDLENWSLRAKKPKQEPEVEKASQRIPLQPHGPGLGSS

[2] = molecular target: T2, Solute carrier family 22 member 11 (Homo sapiens, UniProt Q9NSA0); assay: TP_TRANSPORTER: inhibition of Estrone sulfate uptake in OAT4-expressing S2 cells; format: functional, cell-based
T2 sequence (Q9NSA0 whole entry): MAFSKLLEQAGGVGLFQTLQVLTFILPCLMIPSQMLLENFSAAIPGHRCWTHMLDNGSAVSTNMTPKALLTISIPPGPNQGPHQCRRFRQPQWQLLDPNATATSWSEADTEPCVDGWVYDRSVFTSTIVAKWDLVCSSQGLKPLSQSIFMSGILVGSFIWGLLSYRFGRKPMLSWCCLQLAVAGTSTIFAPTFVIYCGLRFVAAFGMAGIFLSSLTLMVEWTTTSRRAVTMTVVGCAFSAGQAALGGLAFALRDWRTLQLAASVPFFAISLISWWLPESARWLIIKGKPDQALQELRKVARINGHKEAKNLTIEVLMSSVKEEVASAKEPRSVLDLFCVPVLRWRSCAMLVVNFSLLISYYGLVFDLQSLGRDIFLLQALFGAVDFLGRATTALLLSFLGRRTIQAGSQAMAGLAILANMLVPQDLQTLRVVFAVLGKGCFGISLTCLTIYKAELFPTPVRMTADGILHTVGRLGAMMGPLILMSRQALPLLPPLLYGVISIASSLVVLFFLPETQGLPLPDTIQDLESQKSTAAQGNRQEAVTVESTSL

Row | Ki [1] | Ki [2] | Compound
1 | 46 µM | – | Cn1nnnc1SCC1=C(C(=O)O)N2C(=O)[C@@H](NC(=O)[C@H](O)c3ccccc3)[C@H]2SC1 [CEFAMANDOLE]
2 | 550 µM | – | Cc1nnc(SCC2=C(C(=O)O)N3C(=O)[C@@H](NC(=O)Cn4cnnn4)[C@H]3SC2)s1 [CEFAZOLIN]
3 | 290 µM | – | CO/N=C(\C(=O)N[C@@H]1C(=O)N2C(C(=O)O)=C(COC(C)=O)CS[C@H]12)c1csc(N)n1 [CEFOTAXIME]
4 | 40 µM | 200 µM | CC(=O)OCC1=C(C(=O)O)N2C(=O)[C@@H](NC(=O)Cc3cccs3)[C@H]2SC1 [CEPHALOTHIN]
